Test results reported in paper PMC4462585, “Synthesis and Biological Evaluation of 3-Alkyl-1,5-Diaryl-1H-Pyrazoles as Rigid Analogues of Combretastatin A-4 with Potent Antiproliferative Activity” (PLoS ONE, 2015).

Columns and labels:
[1] = tested on: gastric adenocarcinoma cell line SGC-7901; experiment: MTT antiproliferative assay, SGC-7901; type: cell-based; settings: Homo sapiens, 72 h drug exposure, triplicate, read-out: Antiproliferative activity (IC50 ± SD) SGC-7901
Description: (§1) Pulmonary adenocarcinoma cell lines (A549) and gastric adenocarcinoma cell lines (SGC-7901) were provided as gifts (purchased from the Cell Resource Center of Shanghai Institutes for Biological Sciences) from the China-Japan Research Institute of Medical and Pharmaceutical Sciences, Shenyang Pharmaceutical University. Fibrosarcoma cell lines (HT-1080) were purchased from the Cell Resource Center of Shanghai Institutes for Biological Sciences. All cells were maintained in DMEM containing 1% antibiotics (100 units of penicillin and […] per mL in 0.9% normal saline) and 10% foetal bovine serum in a humidified atmosphere containing 5% CO2 at 37°C.
(§2) Antiproliferative activities of CA-4 and the target compounds were measured using a colourimetric assay using 3-(4,5-dimethylthiazol-2yl-)-2,5-diphenyltetrazolium bromide (MTT). Approximately 3 × 10^4 cells were seeded in a 96-well plate. After 24 h of incubation at 37°C, cells were exposed to compounds of differing concentrations (0.0008 μg/mL, 0.004 μg/mL, 0.02 μg/mL, 0.10 μg/mL, 0.50 μg/mL, 2.5 μg/mL, 12.5 μg/mL, 62.5 μg/mL) for 72 h. After treatment, cells were washed with 1X PBS followed by addition of 100 μL of 0.05% MTT reagent to each well, followed by incubation for 4 h at 37°C. After incubation, the supernatant from each well was carefully removed and the formazan crystals were dissolved in 100 μL of DMSO. The colour density was measured spectrophotometrically at 490 nm using a microplate reader (SpectraMax Plus384, Molecular Devices Corp., USA). The percentage of cell growth inhibition was calculated as follow: inhibition ratio % = (Acontrol—Atreated) / Acontrol × 100%. The 50% inhibitory concentration (IC50) was defined as the concentration that reduced the absorbance of the untreated wells by 50% of the vehicle in the MTT assay.

purified bovine tubulin = experiment: Tubulin assembly (polymerization) assay, cell-free, fluorescence-based; type: biochemical; settings: 37°C, IC50 calculated at 80 min, three experiments, read-out: Inhibition of tubulin polymerization IC50
Method: Fig 5 Dose-response effects of CA-4 (1), 7i and 7k on the inhibition of tubulin polymerization. Purified bovine tubulin and GTP were mixed in a 96-well plate. The reaction was initiated by warming the solution from 4°C to 37°C. DMSO was used as a vehicle control. The effect on the assembly of tubulin was monitored using a plate reader at 1 min intervals for 90 min at 37°C.
The effect of compounds 7i and 7k on the polymerization of purified brain tubulin was determined employing a fluorescence-based tubulin polymerization assay kit (Cat. #BK011P, Cytoskeleton, Inc., USA) according to the manufacturer’s protocol. Tubulin was re-suspended in ice-cold G-PEM buffer (80 mM PIPES, 2 mM MgCl2, 0.5 mM EGTA, 1 mM GTP, 20% (v/v) glycerol) and added to wells on a 96-well plate containing the designated concentration of drugs or vehicle. Samples were mixed well, and tubulin assembly was monitored (emission wavelength: 450 nm; excitation wavelength: 360 nm) at 1 min intervals for 90 min at 37°C using a plate reader ([…]). IC50 values were calculated at 80 min using SPSS software in three experiments.

[2] = tested on: pulmonary adenocarcinoma cell line A549; experiment: MTT antiproliferative assay, A549; type: cell-based; settings: Homo sapiens, 72 h drug exposure, triplicate, read-out: Antiproliferative activity (IC50 ± SD) A549
Description: as §1, §2

[3] = tested on: fibrosarcoma cell line HT-1080; experiment: MTT antiproliferative assay, HT-1080; type: cell-based; settings: Homo sapiens, 72 h drug exposure, triplicate, read-out: Antiproliferative activity (IC50 ± SD) HT-1080
Description: as §1, §2

[4] = tested on: microtubule network in SGC-7901 cells; experiment: Immunostaining of tubulin assembly in SGC-7901 cells; type: cell-based, human; settings: 2-fold IC50 concentration (7k 0.14 μM), 48 h
Method: Microtubules were labelled using the indirect immuno-fluorescence method and were analysed by fluorescence microscopy. […] SGC-7901 cells were treated with 7k (0.14 μM) for 48 h (scale bar = 10 μm). The left, middle and right panels represent the tubulin assembly stained with FITC, DAPI and a merge of the corresponding left and middle panels, respectively. Images were taken using a confocal microscope. Immunostaining was performed to detect microtubule-associated tubulin protein after exposure to CA-4 and compound 7k. The SGC-7901 and HT-1080 cells were seeded at a density of 1 × 10^4 per well on a 24-well plate and grown for 24 h. […] The control and treated cells were fixed in acetone:methanol (1:1) for 30 min at -20°C, washed with 1X PBS, incubated for 30 min in 1X PBS containing 2% BSA, and then 0.1% Triton X-100. The primary tubulin antibody (Cell Signaling Technology, MA, USA) was diluted (1:100) with 2% BSA in 1X PBS and incubated overnight at 4°C. The cells were washed with 1X PBS to remove unbound primary antibody, and then cells were incubated for 3 h at 37°C with FITC-conjugated anti-mouse secondary antibody diluted 1:1000 with 2% BSA in PBS.

[5] = tested on: three human cancer cell lines (SGC-7901, A549 and HT-1080); experiment: MTT antiproliferative assay, three human cancer cell lines; type: cell-based; settings: HT-1080, SGC-7901, A549, 72 h, read-out: Antiproliferative IC50 values, range over the three cancer cell lines
Description: as §1
Antiproliferative activities of CA-4 and the target compounds were measured using a colourimetric assay using 3-(4,5-dimethylthiazol-2yl-)-2,5-diphenyltetrazolium bromide (MTT). Approximately 3 × 10^4 cells were seeded in a 96-well plate. After 24 h of incubation at 37°C, cells were exposed to compounds of differing concentrations (0.0008 μg/mL, 0.004 μg/mL, 0.02 μg/mL, 0.10 μg/mL, 0.50 μg/mL, 2.5 μg/mL, 12.5 μg/mL, 62.5 μg/mL) for 72 h. […] The colour density was measured spectrophotometrically at 490 nm using a microplate reader (SpectraMax Plus384, Molecular Devices Corp., USA). The percentage of cell growth inhibition was calculated as follow: inhibition ratio % = (Acontrol—Atreated) / Acontrol × 100%. […]

[6] = tested on: microtubule network in HT-1080 cells; experiment: Immunostaining of tubulin assembly in HT-1080 cells; type: cell-based, human; settings: 2-fold IC50 concentration (7k 0.18 μM), 48 h
Method: Microtubules were labelled using the indirect immuno-fluorescence method and were analysed by fluorescence microscopy. […] HT-1080 cells were treated with 7k (0.18 μM) for 48 h (scale bar = 10 μm). The left, middle and right panels represent tubulin assembly stained with FITC, DAPI and a merge of the corresponding left and middle panels, respectively. Images were taken using a confocal microscope. Immunostaining was performed to detect microtubule-associated tubulin protein after exposure to CA-4 and compound 7k. The SGC-7901 and HT-1080 cells were seeded at a density of 1 × 10^4 per well on a 24-well plate and grown for 24 h. […] The control and treated cells were fixed in acetone:methanol (1:1) for 30 min at -20°C, washed with 1X PBS, incubated for 30 min in 1X PBS containing 2% BSA, and then 0.1% Triton X-100. The primary tubulin antibody (Cell Signaling Technology, MA, USA) was diluted (1:100) with 2% BSA in 1X PBS and incubated overnight at 4°C. The cells were washed with 1X PBS to remove unbound primary antibody, and then cells were incubated for 3 h at 37°C with FITC-conjugated anti-mouse secondary antibody diluted 1:1000 with 2% BSA in PBS.

SMILES	IC50 [1] [nM]	IC50 (purified bovine tubulin) [nM]	IC50 [2] [nM]	IC50 [3] [nM]	melting point [°C]	Effect on microtubule network (immunofluorescence), SGC-7901 [4]	IC50 [5] [nM]	Effect on microtubule network (immunofluorescence), HT-1080 [6]
COc1ccc(-c2cc(C)nn2-c2cc(OC)c(OC)c(OC)c2)cc1O [Compound 7i, 3-Methyl-5-(3-hydroxy-4-methoxyphenyl)-1-(3,4,5-trimethoxyphenyl)-1H-pyrazole]	275 ± 20	2500	1120 ± 120	930 ± 130	130 to 131			
COc1ccc(-c2cc(C)nn2-c2cc(OC)c(OC)c(OC)c2)cc1N [Compound 7k, 3-Methyl-5-(3-amino-4-methoxyphenyl)-1-(3,4,5-trimethoxyphenyl)-1H-pyrazole]	76 ± 9	1700	96 ± 11	122 ± 13	129 to 130	disruption of the tubulin network	76 to 120	disruption of the tubulin network
COc1ccc(/C=C\c2cc(OC)c(OC)c(OC)c2)cc1O [Compound 1, Combretastatin A-4]	16 ± 10	900	35 ± 9	23 ± 12		disruption of the tubulin network	16 to 35	disruption of the tubulin network
